Here are results for five compounds from EP2948433B1, “ATGLISTATIN AS LIPASE INHIBITOR” (Technische Universität Graz, priority 2013, dated 2014).

The term IC50 denotes the concentration that inhibits the measured activity by half.

Where a name gives a salt, the structure may show the parent alone.

One data set has as its system ATGL. The settings on record: expressed ATGL (Jenkins 2004) or native ATGL in hepatocytes (Chung 2008); cited from earlier work.
Data set [1] can be described thus: Water solubility of the hydrochloride. The class given is physicochemical. The settings on record: hydrochloride obtained as colourless oil. The protocol: (§1) As some compounds are not readily soluble in water, it may be preferable to prepare a more readily soluble form of a compound. A possible way to increase the water solubility of a compound is to generate its hydrochloride. The compound is suspended in dest. H2O and a 25 % HCl-solution is added until the solid is completely dissolved. Next, 1 M Tris-HCl-buffer is added to bring the solution to pH 7.4. This procedure yields usually good results. However, in some cases the compound may not be soluble or may precipitate when the pH of the solution elevated to bring it close to neutral pH. In this case, an alternative procedure is provided. The compound is suspended in diethyl ether and dichloromethane is added until the solid is completely dissolved. Then hydrochloric acid is added and all of the solvents are removed under reduced pressure and dried on high vacuum. The resulting colourless oil is water soluble. This procedure was followed with Atglistatin (compound 4) where NMR confirmed the structure of Atglistatin hydrochloride. The water soluble inhibitor may be injected in mice and its impact on the release of free fatty acids (FFA) and glycerol, measured.

Data set [2] can be described thus: Injection of the water soluble inhibitor in mice, release of FFA and glycerol. Type of data set: in vivo. As to the method:
as §1
Atglistatin (compound 4) was administrated orally by gavage in olive oil (200 µl) or by IP injection. For IP administration, the hydrochloride was generated by the addition of 25% HCl resulting in a water soluble compound. […]

Data set [3] can be described thus: In vitro toxicity tests (not specified further). Type of data set: cell-based.
A further data set has as its target T1, recombinant ATGL (Mus musculus, UniProt Q8BJ56).
T1 construct: Strep-tag; made in house; host or cells: E. coli (XL-1), vector pASK-IBA5+; crude lysate supernatant, not purified
T1 sequence (Q8BJ56 1-486): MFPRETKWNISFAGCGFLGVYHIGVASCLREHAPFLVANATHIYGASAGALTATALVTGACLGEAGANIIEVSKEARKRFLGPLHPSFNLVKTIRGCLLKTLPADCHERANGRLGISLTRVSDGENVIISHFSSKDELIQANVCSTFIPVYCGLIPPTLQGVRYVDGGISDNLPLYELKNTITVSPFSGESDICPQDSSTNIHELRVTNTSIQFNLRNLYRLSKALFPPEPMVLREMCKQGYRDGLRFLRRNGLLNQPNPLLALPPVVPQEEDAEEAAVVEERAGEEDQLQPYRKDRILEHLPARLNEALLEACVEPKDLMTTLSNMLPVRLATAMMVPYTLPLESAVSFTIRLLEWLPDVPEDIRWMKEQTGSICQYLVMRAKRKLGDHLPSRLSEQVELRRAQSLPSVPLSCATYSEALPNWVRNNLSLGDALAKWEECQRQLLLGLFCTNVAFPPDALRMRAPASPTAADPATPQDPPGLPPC
The experiment in a line: TG hydrolase activity of E. coli lysates overexpressing recombinant strep-tagged ATGL and CGI-58, radiolabeled triolein substrate. The class given is biochemical. The settings on record: inhibition of the activity of recombinant ATGL. The protocol:
• Figure 1. Structure of compounds 1 to 3 (reference) and compound 4 (atglistatin) and effect on ATGL activity. For determination of lipase activity, lysates of E. coli overexpressing recombinant strep-tagged ATGL and CGI-58 were incubated with a substrate containing radiolabeled [9,10-3H(N)]-triolein. Subsequently, FA were extracted and quantified by liquid scintillation counting. Lysates of cells expressing empty vector were set as blank. Inhibitors were solubilized in DMSO and added at the indicated concentrations. DMSO alone was used as negative control. (A) Structure and IC50 values of compounds 1-4. (B) Dose-dependent inhibition of ATGL in the presence of compound 3 and 4. […] (C) Lineweaver-Burk plots for kinetic analysis of ATGL inhibition. Experiments were performed at varying concentrations of substrate (0.05 - 3 mM) in presence and absence of compound 4 (Atglistatin). […] Data are presented as mean +/-S.D. of triplicate determinations. Data for compound 4 are representative for at least three independent experiments. • Figure 2. Selectivity of Atglistatin. Lipase activity of ATGL, HSL, lipoprotein lipase, and pancreatic lipase was determined using triolein as substrate. MGL activity was detected in the presence of rac-(1,3)-monooleoylglycerol as substrate. Inhibitors were solubilized in DMSO and added at the indicated concentrations. DMSO alone was used as negative control. (A) Dose-dependent inhibition of TG hydrolase activity in WAT lysates obtained from wild-type and ATGL-ko mice. (B) Inhibition of TG hydrolase activity in wild-type WAT lysates by Atglistatin (40 µM) and by the HSL inhibitor Hi 76-0079 (20 µM). (C) Effect of Atglistatin on murine MGL (purified from E. coli), and murine HSL (overexpressed in COS-7 lysates) activity. (D) Effect of Atglistatin on purified bovine LPL (Sigma) and pancreatic lipase (from porcine pancreas, Sigma). Data are presented as mean +/- S.D. of triplicate determinations and are representative for at least three independent experiments (p < 0.05 **, p < 0.01; ***, p < 0.001). • Figure 3 Inhibition of lipolysis in 3T3-L1 adipocytes and WAT organ cultures. (A,B) Differentiated 3T3 cells were preincubated with the indicated concentrations of Atglistatin. Thereafter, the medium was replaced by DMEM containing 2% BSA (fatty acid free), 10 µM forskolin, in the presence or absence of inhibitors. The release of FA (A) and glycerol (B) in the media was determined using commercial kits. Basal FA and glycerol release (not shown) was barely detectable under the applied conditions. Data are presented as mean +/- SD and are representative for 2 independent experiments. (C-F) Effect of Atglistatin on WAT basal (C, D) and forskolin-stimulated (E, F) lipolysis. Adipose tissue pieces (∼15 mg, n=5 for each concentration) of wild-type mice were cultured for 8 h in DMEM containing 2 % FA-free BSA and the indicated concentrations of Atglistatin. Subsequently, the medium was replaced by identical fresh medium and samples were collected after incubation for another hour in the presence or in the absence of 10 µM forskolin. Atglistatin was solubilized in DMSO and DMSO alone was used as negative control. Data are presented as mean +/- S.D. (*, p < 0.05 **, p < 0.01; ***, p < 0.001). • Figure 4 Inhibition of lipolysis in vivo. […] At the indicated timepoints blood was taken retroorbitally and plasma parameters were measured using commercial kits. […] 8 h after gavage blood was taken retroorbitally and plasma parameters were measured using commercial kits. […]

`O=C1O/C(=C/Br)CC[C@@H]1c1cccc2ccccc12` [(R)-Bromoenol lactone]: in the data set on ATGL, the ATGL inhibitory activity result is on record as “has been demonstrated”.
`CN(C)C(=O)Nc1cccc(-c2ccc(N(C)C)cc2)c1` [Atglistatin hydrochloride]: the water solubility result in data set [1] is “water soluble”. Besides, in data set [2], the “release of free fatty acids (FFA) and glycerol after injection” value was “reduction in the release of free fatty acids (FFA) and glycerol”.
In the case of `CCOC(=O)c1nn(-c2ccc(OCC)cc2)cc1O` [Compound 1, Ethyl 1-(4-ethoxyphenyl)-4-hydroxy-1H-pyrazole-3-carboxylate], the “toxicity in in vitro tests” value in data set [3] is recorded as “some limited toxicity”.
In the case of `CCOC(=O)c1ccn(-c2ccc(OCC)cc2)n1` [Compound 2, Ethyl 1-(4-ethoxyphenyl)-1H-pyrazole-3-carboxylate, reference compound], the IC50 on recombinant ATGL came out at 40 µM. In addition, the “toxicity in in vitro tests” value in data set [3] is listed as “some limited toxicity”.
On to `CCOC(=O)c1cccc(-c2ccc(OCC)cc2)c1` [Compound 3, Ethyl 4'-ethoxybiphenyl-3-carboxylate, reference compound], for which the IC50 on recombinant ATGL is 12 µM.
